Source: US20240245693A1, “COMPOSITIONS AND METHODS OF TISSUE REGENERATION THERAPY” (The Regents of the University of California, priority 2021, published 2024)
Entries after “also recorded” stand apart in the source; their conditions may differ.

Key:
[1] = test system: mouse splinted skin wound; assay: mouse excisional splinted skin wound healing model, topical application; format: in vivo; settings: daily topical application at 5 micromolar in 10% DMSO vehicle; FIG. 5
Description: FIGS. 1A-1B show wound healing in mouse excisional skin wound splinting model, wherein a splinting ring is tightly adhered to the skin around the wound, thereby preventing local skin contraction. The wound is thus healed through a process of granulation and re-epithelialization similar to that occurring in human. The figures present a time course healing of skin splinted wound in wild type (WT) (FIG. 1A) and Npas2 KO mice (FIG. 1B).
Skin of experimental animals such as mice are similarly composed of multiple tissues; however excisional wound heals faster in part due to active wound contraction. Therefore, mouse wound healing model employs a silicone stent around the excisional skin, which prevents contraction allowing the healing through re-epithelialization and granulation tissue formation. The mouse splinted skin wound model has provided a common experimental platform, which allows investigation of critical molecules for skin wound healing using genetically manipulated mice. Knockout mutation of wound inflammation related molecules such as Sphingosine kinase-1 or mast cell proteases was reported to delay the wound closure and the proliferative phase of healing, respectively.
High throughput screening (HTS) of well-defined chemical compounds was performed using Npas2-LacZ reporter mouse skin fibroblasts. […]

[2] = test system: human periodontal ligament MSC (PDLSC); assay: in vitro osteogenic differentiation assay using human periodontal ligament stem cells (PDLSC); format: cell-based; settings: supplementation of compound; FIG. 8
[3] = test system: human dermal fibroblasts; assay: in vitro collagen synthesis assay using human dermal fibroblasts; format: cell-based
Experimental: Without serotonin (5-HT) supplementation, the majority of selected compounds maintained fibroblastic collagen synthesis.
(§1) High throughput screening (HTS) of well-defined chemical compounds was performed using Npas2-LacZ reporter mouse skin fibroblasts. Chemical genomics analysis of hit compounds indicated the involvement of monoamine-related pathways for regulating Npas2 expression. To identify the regulatory mechanism of Npas2 in human dermal fibroblasts, a library of lentivirus expression vectors containing human monoamine-related genes was selected for over-expression study.

[4] = test system: Npas2; assay: Npas2 expression in human dermal fibroblasts; format: cell-based; settings: serotonin supplementation; FIG. 9F
Experimental: FIGS. 9A-9G show the effect of HTR1B and HTR2B on human dermal fibroblasts.
as §1

SMILES	wound closure and skin tissue regeneration [1]	osteogenic differentiation of PDLSC [2]	fibroblastic collagen synthesis ([3]; in the presence of 10 μM 5-HT supplementation, FIG. 4)	Npas2 expression of human dermal fibroblasts [4]	in vitro collagen synthesis of human dermal fibroblasts ([3]; serotonin supplementation, FIG. 9E)
N#Cc1cc(CN2CCC(Nc3ncnc4sc(Cl)cc34)CC2)ccc1F [PRX-08066, 5-[[4-[(6-chlorothieno[2,3-d]pyrimidin-4-yl)amino]piperidin-1-yl]methyl]-2-fluorobenzonitrile]	significant wound closure and skin tissue regeneration	effective compound; also recorded: enhanced the differentiation of PDLSC	high level of collagen synthesis		
CN1CCC(=C2c3ccccc3C=Cc3ccccc32)CC1 [Cyproheptadine, 1-methyl-4-(2-tricyclo[9.4.0.03,8]pentadeca-1(15),3,5,7,9,11,13-heptaenylidene)piperidine]	significant wound closure and skin tissue regeneration				
NCCc1c[nH]c2ccc(O)cc12 [serotonin]				increased	decreased
